Among the data in the PolyMetriX glass transition set are glass transition temperature values, retold here.

As for `*/C(Cl)=C(/*)c1ccccc1` (repeat unit), the glass transition temperature amounted to 215.00 °C.

Compound `*C(=O)OCC(C)(C)COC(=O)N1CCN(*)CC1` (repeat unit) came in with a glass transition temperature of 70.00 °C.

As to `*C(CC)COC(=O)NCCCCCCNC(=O)OCC(CC)n1c(=O)c2cc3c(=O)n(*)c(=O)c3cc2c1=O` (repeat unit), the glass transition temperature came out at 61.00 °C.

`*CC(=O)NCCCCCCNC(=O)COC(=O)CCC(=O)O*` (repeat unit) showed a glass transition temperature of 30.00 °C.

`*CC(=O)NCCCCCCNC(=O)COC(=O)CCCCC(=O)O*` (repeat unit) showed a glass transition temperature of 19.00 °C.

`*CC(=O)NCCCCCCNC(=O)COC(=O)CCCCCCC(=O)O*` (repeat unit) showed a glass transition temperature of 8.00 °C.

Consider `*CC(=O)NCCCCCCNC(=O)COC(=O)CCCCCCCCCCC(=O)O*` (repeat unit), for which the glass transition temperature was 0.90 °C.

Compound `*CC(=O)Nc1ccc(NC(=O)CN2C(=O)c3ccc(C(=O)c4ccc5c(c4)C(=O)N(*)C5=O)cc3C2=O)cc1` (repeat unit) came in with a glass transition temperature of 250.00 °C.

The compound `*CC(=O)Nc1ccc(Oc2c(F)c(F)c(Oc3ccc(NC(=O)c4ccc5c(c4)C(=O)N(*)C5=O)cc3)c(F)c2F)cc1` (repeat unit) displayed a glass transition temperature of 254.00 °C.

For `*CC(=O)Nc1ccc(Oc2ccc(Oc3ccc(NC(=O)CN4C(=O)c5ccc(C(c6ccc7c(c6)C(=O)N(*)C7=O)(C(F)(F)F)C(F)(F)F)cc5C4=O)cc3)cc2)cc1` (repeat unit), the glass transition temperature is 242.00 °C.

Regarding `*CC(=O)Nc1ccc(Oc2ccc(S(=O)(=O)c3ccc(Oc4ccc(NC(=O)CN5C(=O)c6ccc(C(c7ccc8c(c7)C(=O)N(*)C8=O)(C(F)(F)F)C(F)(F)F)cc6C5=O)cc4)cc3)cc2)cc1` (repeat unit), the glass transition temperature turned out to be 241.00 °C.

As to `*CC(C)(C)COC(=O)NC(=O)c1cc(C(=O)NC(=O)O*)cc(C(C)(C)C)c1` (repeat unit), the glass transition temperature is 144.00 °C.

`*CC(C)(C)COC(=O)NC(=O)c1ccc(C(=O)NC(=O)O*)cc1` (repeat unit) registered a glass transition temperature of 102.00 °C.

Compound `*CC(C)(C)COC(=O)NC(=O)c1cccc(C(=O)NC(=O)O*)c1` (repeat unit) had a glass transition temperature of 66.00 °C.

As to `*CC(C)(C)COC(=O)Nc1ccc(Cc2ccc(NC(=O)O*)cc2)cc1` (repeat unit), the glass transition temperature is 94.00 °C.

In the case of `*CC(C)(C)COC(=O)c1ccc(-c2ccc(-c3ccc(C(=O)O*)cc3)cc2)cc1` (repeat unit), the glass transition temperature amounted to 100.00 °C.

The compound `*CC(C)(C)CS(=O)(=O)CC(C)(C)COC(=O)Nc1ccc(Cc2ccc(NC(=O)O*)cc2)cc1` (repeat unit) yielded a glass transition temperature of 90.00 °C.

The compound `*CC(C)(C)CS(=O)(=O)CC(C)(C)COC(=O)O*` (repeat unit) returned a glass transition temperature of 50.00 °C.

`*CC(C)(CC)C(=O)O*` (repeat unit): the glass transition temperature is -9.00 °C.

In the case of `*CC(C)(CCC)COC(=O)c1ccc(-c2ccc(C(=O)O*)cc2)cc1` (repeat unit), the glass transition temperature was 95.00 °C.

Consider `*CC(C)(CO)CO*` (repeat unit), for which the glass transition temperature was 62.00 °C.

On to `*CC(C)(CO*)COCC(F)(F)C(F)(F)C(F)(F)C(F)(F)C(F)(F)C(F)(F)C(F)(F)F` (repeat unit), for which the glass transition temperature is -49.00 °C.

Regarding `*CC(C)(CO*)COCC(F)(F)C(F)(F)C(F)(F)F` (repeat unit), the glass transition temperature is -45.00 °C.

As to `*CC(C)(CO*)COCCOCCOCCOC` (repeat unit), the glass transition temperature is -18.00 °C.

Regarding `*CC(C)(COC(=O)O*)C(=O)OCc1ccccc1` (repeat unit), the glass transition temperature was -2.00 °C.

`*CC(C)CNC(=O)O*` (repeat unit) returned a glass transition temperature of 40.00 °C.

On to `*CC(C)COC(=O)c1ccc(C(=O)O*)cc1` (repeat unit), for which the glass transition temperature stood at 55.00 °C.

As for `*CC(CC)(CC)COC(=O)Nc1ccc(C)c(NC(=O)O*)c1` (repeat unit), the glass transition temperature is -60.00 °C.

In turn, `*CC(CC)(CCl)CO*` (repeat unit) showed a glass transition temperature of 20.00 °C.

In the case of `*CC(CCCC)COC(=O)NC(=O)c1cccc(C(=O)NC(=O)O*)c1` (repeat unit), the glass transition temperature was 64.00 °C.

In the case of `*CC(CCCCCCCCCC)C(CCCCCCCCCC)COC(=O)c1ccc(C(=O)O*)cc1` (repeat unit), the glass transition temperature is -38.00 °C.

Regarding `*CC(CCCCCCCCCCCCCCCC)C(CCCCCCCCCCCCCCCC)COC(=O)c1ccc(C(=O)O*)cc1` (repeat unit), the glass transition temperature was -26.00 °C.

`*CC(O)CN(*)c1ccccc1` (repeat unit) showed a glass transition temperature of 78.50 °C.

Consider `*CC(OC(=O)C(Cc1ccccc1)NC(=O)OC(C)(C)C)C(COC(=O)O*)OC(=O)C(Cc1ccccc1)NC(=O)OC(C)(C)C` (repeat unit), for which the glass transition temperature was 82.40 °C.

`*CC(OC(=O)OCC)C(COC(=O)O*)OC(=O)OCC` (repeat unit) yielded a glass transition temperature of 49.80 °C.

With `*CC(OC(C)=O)C(COC(=O)O*)OC(C)=O` (repeat unit), the glass transition temperature worked out at 58.60 °C.

As for `*CC1CC(CNC(=O)c2cccc(C(=O)N*)c2)CC(C(C)(C)C)C1` (repeat unit), the glass transition temperature worked out at 209.00 °C.

As to `*CCCNC(=O)CNC(=O)C(Cc1ccccc1)NC(=O)CCCCCCCCC(=O)NC(Cc1ccccc1)C(=O)NCC(=O)NCCCOCCOCCO*` (repeat unit), the glass transition temperature came to 36.00 °C.

Compound `*CCc1ccc(*)o1` (repeat unit) had a glass transition temperature of 25.50 °C.

In the case of `*CCc1ccc(*)s1` (repeat unit), the glass transition temperature was 26.00 °C.

`*CN1C(=O)c2ccc(C(c3ccc4c(c3)C(=O)N(Cc3nc5ccc(Cc6ccc7nc(*)oc(=O)c7c6)cc5c(=O)o3)C4=O)(C(F)(F)F)C(F)(F)F)cc2C1=O` (repeat unit) had a glass transition temperature of 218.00 °C.

`*COC(=O)OC1C(*)OC2OC(C)(C)OC21` (repeat unit) yielded a glass transition temperature of 128.00 °C.

As for `*COC(=O)OCC1OC(OCC)(OCC)OC1*` (repeat unit), the glass transition temperature was found to be 10.80 °C.

Compound `*Cc1cc(C)c(CNC(=O)c2ccc(C(=O)N*)cc2)cc1C` (repeat unit) gave a glass transition temperature of 225.00 °C.

`*Cc1cc(C23CC4CC(CC(C4)C2)C3)cc(CN(*)c2ccccc2)c1O` (repeat unit) displayed a glass transition temperature of 109.40 °C.

In turn, `*Cc1cc(CNC(=O)c2cccc(C(=O)N*)c2)cc(C(C)(C)C)c1` (repeat unit) had a glass transition temperature of 188.00 °C.

Compound `*Nc1cccc(NC(=O)c2cc(NC(=O)c3ccncc3)cc(C(*)=O)c2)c1` (repeat unit) had a glass transition temperature of 321.00 °C.

In turn, `*Nc1cccc2c(NC(=O)c3cc(NC(=O)C(CCSC)N4C(=O)c5ccccc5C4=O)cc(C(*)=O)c3)cccc12` (repeat unit) gave a glass transition temperature of 198.00 °C.

Take `*OC(=O)OCC(OC)C(COC(=O)OC1COC2C(*)COC12)OC` (repeat unit): the glass transition temperature is 61.00 °C.

In the case of `*OC(C)COC(=O)/C=C/C(*)=O` (repeat unit), the glass transition temperature is -14.00 °C.

`*OC(C)COC(=O)c1ccc(C(*)=O)cc1` (repeat unit) displayed a glass transition temperature of 98.00 °C.

With `*OC(C)COC(=O)c1cccc(C(*)=O)c1` (repeat unit), the glass transition temperature was determined as 77.00 °C.

Take `*OC(COC(=O)c1ccc(-c2ccc(C(*)=O)cc2)cc1)COc1ccc(/N=N/c2ccc(C#N)cc2)cc1` (repeat unit): the glass transition temperature amounted to 141.00 °C.

Take `*OC(COC(=O)c1ccc(C(*)=O)cc1)COc1ccc(/N=N/c2ccc(C#N)cc2)cc1` (repeat unit): the glass transition temperature was determined as 122.00 °C.

As for `*OC(COCCCC)COC(*)=O` (repeat unit), the glass transition temperature is -22.00 °C.

Compound `*O[Si](C)(C)COC(=O)CCCCCCCCC(=O)Oc1ccc(S(=O)(=O)c2ccc(Oc3ccc(/C=C4\CC/C(=C\c5ccc(Oc6ccc(S(=O)(=O)c7ccc(OC(=O)CCCCCCCCC(=O)OC[Si](*)(C)C)cc7)cc6)cc5)C4=O)cc3)cc2)cc1` (repeat unit) returned a glass transition temperature of 73.00 °C.

`*O[Si](C)(C)COC(=O)CCCCCCCCC(=O)Oc1ccc(S(=O)(=O)c2ccc(Oc3ccc(/C=C4\CCCC/C(=C\c5ccc(Oc6ccc(S(=O)(=O)c7ccc(OC(=O)CCCCCCCCC(=O)OC[Si](*)(C)C)cc7)cc6)cc5)C4=O)cc3)cc2)cc1` (repeat unit): the glass transition temperature is 81.00 °C.

In the case of `*Oc1ccc(C(=O)OC(C)COC(C)COC(C)COC(=O)c2ccc(OC(=O)c3ccc(C(*)=O)cc3)cc2)cc1` (repeat unit), the glass transition temperature turned out to be 36.00 °C.

In the case of `*Oc1ccc(Oc2ccc(NC(=O)c3cc(C(=O)Nc4ccc(*)cc4)cc(C(C)(C)C)c3)cc2)cc1` (repeat unit), the glass transition temperature worked out at 195.50 °C.

The compound `*Oc1ccc(Oc2ccc(Oc3ccc(NC(=O)c4cc(C(=O)Nc5ccc(*)cc5)cc(C(C)(C)C)c4)cc3)cc2)cc1` (repeat unit) had a glass transition temperature of 230.00 °C.

In the case of `*Oc1cccc(Oc2cccc(NC(=O)c3cc(Oc4ccc(C(=O)O)c(C(=O)Nc5cccc(*)c5)c4)ccc3C(=O)O)c2)c1` (repeat unit), the glass transition temperature worked out at 176.40 °C.

Compound `*Sc1ccc(C(=O)CNCCCCCCCCNCC(=O)c2ccc(*)cc2)cc1` (repeat unit) displayed a glass transition temperature of 231.00 °C.

The compound `*c1ccc(NC(=O)CN2C(=O)c3ccc(C(c4ccc5c(c4)C(=O)N(CC(=O)Nc4ccc(-c6nnc(*)o6)cc4)C5=O)(C(F)(F)F)C(F)(F)F)cc3C2=O)cc1` (repeat unit) returned a glass transition temperature of 280.00 °C.

In turn, `*c1ccc(Oc2ccc(-c3nc4cc(Oc5ccc(NC(=O)CN6C(=O)c7ccc(C(c8ccc9c(c8)C(=O)N(CC(=O)Nc8ccc(Oc%10ccc%11nc(-c%12ccccc%12)c(*)nc%11c%10)cc8)C9=O)(C(F)(F)F)C(F)(F)F)cc7C6=O)cc5)ccc4nc3-c3ccccc3)cc2)cc1` (repeat unit) registered a glass transition temperature of 260.00 °C.

On to `*c1ccc(Oc2cccc(NC(=O)c3cc(NC(=O)c4ccc(OC(C)=O)cc4)cc(C(=O)Nc4cccc(Oc5ccc(-c6nnc(*)o6)cc5)c4)c3)c2)cc1` (repeat unit), for which the glass transition temperature came to 270.00 °C.
